B1: 1.39.1: fully human monoclonal antibody against human HER2, parent of 39S (WO 2008/019290); VH SEQ ID NO:43, VL SEQ ID NO:44 (antibody, V domains shown)
VH: EVQLVESGGGLVKPGGSLRLSCAASGFTFSSYSMNWVRQAPGKGLEWVSSISSSSSYIYYADSVKGRFTISRDNAKNSLYLQMNSLRAEDTAVYYCARGGDGYNYYYFDYWGQGTLVTVSS
VL: DIVMTQSPDSLAVSLGERATITCKSSQSVFFRSNNKNCLAWYQQRPGQPPNLLIYWASSRESGVPDRFSGSGSGTDFALTISSLQTEDVAVYYCQQYFGSPFTFGPGTKVDIK

Assays:
NCI-N87 cell = test: Proliferation inhibition assay in serum-containing media; format: cell-based, human
Protocol: Cell viability was determined using Cell Titer Glo from Promega according to manufacturer's instructions.

HER2 = HER2 (Homo sapiens, UniProt P04626); conditions: reported value; read-out: reported affinity of the parent antibody; cited from earlier work

Row | Molecule | inhibition of cell proliferation (NCI-N87 cell) | Kd (HER2) [nM]
1 | pertuzumab: humanized version of the murine antibody 2C4 that inhibits dimerization of HER2 with other HER receptors [reference compound] | limited activity | 
2 | B1 |  | ~2
